Experimental data taken from ChEMBL document CHEMBL3046468, “Synthesis, characterization and in vitro hydrolysis studies of ester and amide prodrugs of dexibuprofen” (Med Chem Res, 2012).

What was measured:
[1] = Half life in 80% Homo sapiens (human) plasma at pH 7.4 at 10 mg; type: ADME, cell-free; settings: 80% human plasma
[2] = Solubility of the compound in ethyl acetate at 5 mg; type: physicochemical
[3] = Solubility of the compound in 0.1 N HCl at 5 mg; type: physicochemical; settings: buffer
[4] = Protein binding to 6% egg albumin at 20 ug/ml; settings: read-out: PPB (converted)
[5] = Solubility of the compound in ethanol at 5 mg; type: physicochemical
[6] = Solubility of the compound in chloroform at 5 mg; type: physicochemical
[7] = Prodrug activation in simulated gastric fluid assessed as dexibuprofen regeneration rate at 10 mg by HPLC analysis; settings: in vitro
[8] = Half life in PBS at pH 7.4 by spectrophotometric analysis; type: ADME
[9] = Solubility of the compound in DMF at 5 mg; type: physicochemical
[10] = Solubility of the compound in 0.1 N NaOH at 5 mg; type: physicochemical
[11] = Solubility of the compound in 0.1 N NaOH; type: physicochemical
[12] = Solubility of the compound in DMF; type: physicochemical
[13] = Solubility of the compound in 0.1 N HCl; type: physicochemical; settings: buffer
[14] = Solubility of the compound in ethyl acetate; type: physicochemical
[15] = Solubility of the compound in chloroform; type: physicochemical
[16] = Solubility of the compound in ethanol; type: physicochemical

Row | Structure (SMILES) | half-life [1] [h] | solubility [2] | solubility [3] | fraction unbound at 20 ug/ml [4] | solubility [5] | solubility [6] | Drug metabolism [7] | half-life [8] [h] | solubility [9] | solubility [10] | solubility [11] | solubility [12] | solubility [13] | solubility [14] | solubility [15] | solubility [16]
1 | CC(C)Cc1ccc(C(C)C(=O)OC(C)C)cc1 (stereo unspecified) | 0.65 | soluble | Insoluble | 0.35 | soluble | soluble | Not Active | 2.1 | soluble | soluble |  |  |  |  |  | 
2 | CCCCOC(=O)C(C)c1ccc(CC(C)C)cc1 (stereo unspecified) | 0.483 | soluble | Insoluble | 0.65 | soluble | soluble | Not Active | 2.1 | soluble | soluble |  |  |  |  |  | 
3 | CCC(C)OC(=O)C(C)c1ccc(CC(C)C)cc1 (stereo unspecified) | 0.65 | soluble | Insoluble | 0.33 | soluble | soluble | Not Active | 2.1 | soluble | soluble |  |  |  |  |  | 
4 | CC(C)Cc1ccc(C(C)C(=O)OCc2ccccc2)cc1 (stereo unspecified) | 0.65 | soluble | Insoluble | 0.63 | soluble | soluble | Not Active | 2.1 | soluble | soluble |  |  |  |  |  | 
5 | CC(C)Cc1ccc(C(C)C(=O)OCC(O)CO)cc1 (stereo unspecified) | 0.483 | soluble | Insoluble | 0.77 | soluble | soluble | Not Active | 2.1 | soluble | soluble |  |  |  |  |  | 
6 | COC(=O)CNC(=O)C(C)c1ccc(CC(C)C)cc1 (stereo unspecified) | 0.883 | soluble | Insoluble | 0.76 | soluble | soluble | Not Active | 2.58 | soluble | soluble |  |  |  |  |  | 
7 | COC(=O)C(C)NC(=O)C(C)c1ccc(CC(C)C)cc1 (stereo unspecified) | 0.883 | soluble | Insoluble | 0.64 | soluble | soluble | Not Active | 2.58 | soluble | soluble |  |  |  |  |  | 
8 | COC(=O)C(NC(=O)C(C)c1ccc(CC(C)C)cc1)C(C)C (stereo unspecified) | 0.883 | soluble | Insoluble | 0.55 | soluble | soluble | Not Active | 3.3 | soluble | soluble |  |  |  |  |  | 
9 | COC(=O)C(CC(C)C)NC(=O)C(C)c1ccc(CC(C)C)cc1 (stereo unspecified) | 0.883 | soluble | Insoluble | 0.49 | soluble | soluble | Not Active | 3.16 | soluble | soluble |  |  |  |  |  | 
10 | COC(=O)C(Cc1ccccc1)NC(=O)C(C)c1ccc(CC(C)C)cc1 (stereo unspecified) | 0.883 | soluble | Insoluble | 0.53 | soluble | soluble | Not Active | 2.97 | soluble | soluble |  |  |  |  |  | 
11 | CC(C)Cc1ccc([C@H](C)C(=O)O)cc1 [DEXIBUPROFEN] |  |  |  |  |  |  |  |  |  |  | soluble | soluble | Insoluble | soluble | soluble | soluble
